Values of other authors in PMC11539907, “Cytotoxicity of norstictic acid derivatives, a depsidone from Ramalina anceps Nyl” (Turkish Journal of Chemistry, 2024).
Read-outs that look alike come from different tables or passages of the source.

Assays:
[1] = tested on: 786-0 (kidney carcinoma) cells; set-up: method as in Bogo et al. (2020); settings: ref Bogo et al. (2020), cited from earlier work
[2] = tested on: MDA-MB-231/GFP cells implanted into athymic female nude mice; set-up: method as in PMID 26744260; settings: cited from earlier work
[3] = tested on: PC-03 (prostate carcinoma) cells; set-up: method as in Bogo et al. (2020); settings: ref Bogo et al. (2020), cited from earlier work
[4] = tested on: MCF-10A mammary epithelial cells; set-up: method as in PMID 26744260; settings: cited from earlier work
[5] = tested on: NIH/3T3 (mouse embryonic fibroblast) cells; set-up: method as in Bogo et al. (2020); settings: NIH/3T3 normal cells; ref Bogo et al. (2020); read-out: growth inhibition (GI50); cited from earlier work
[6] = tested on: TNBC MDA-MB-231 cells; set-up: method as in PMID 26744260; settings: cited from earlier work
[7] = tested on: UACC-62 (human melanoma) cells; settings: cited from earlier work
[8] = tested on: MCF7 (breast carcinoma) cells; set-up: method as in Bogo et al. (2020); settings: ref Bogo et al. (2020), cited from earlier work
[9] = tested on: HEP2 (laryngeal carcinoma) cells; set-up: method as in Bogo et al. (2020); settings: ref Bogo et al. (2020), cited from earlier work
[10] = tested on: B16-F10 (murine melanoma) cells; set-up: method as in Brandão et al. (2013); settings: ref Brandão et al. (2013), cited from earlier work
[11] = tested on: HT-29 (colon carcinoma) cells; set-up: method as in Bogo et al. (2020); settings: ref Bogo et al. (2020), cited from earlier work
[12] = tested on: tested tumor cells (786-0, MCF7, HT-29, PC-03, HEP2, B16-F10, UACC-62); settings: cited from earlier work; for cytotoxic activity in words: panel of tumor cells

Structure (SMILES): Cc1cc(O)c(C=O)c2c1C(=O)Oc1c(C)c(O)c3c(c1O2)C(O)OC3=O (stereo not shown) [compound 1, Norstictic acid]
- selectivity index (SI) ([1]; 3T3 vs 786-0, from literature GI50 values): 0.9
- GI50 ([1]; 786-0 cells, read-out: growth inhibition (GI50)): 759 µM
- in vivo effect on tumor growth in words [2]: tolerability and significant inhibitory effect
- selectivity index (SI) ([3]; 3T3 vs PC-03 (PC-3)): 3.6
- GI50 ([3]; PC-03 cells, read-out: growth inhibition (GI50)): 191 µM
- toxicity to nontumorogenic cells in words [4]: minimal toxicity
- GI50 [5]: 696 µM
- proliferation, migration, and invasion in words [6]: significantly suppressed the proliferation, migration, and invasion
- selectivity index (SI) ([7]; 3T3 vs UACC-62, ref Brandão et al. (2013)): >7.6
- GI50 ([7]; UACC-62 cells, ref Brandão et al. (2013), read-out: growth inhibition (GI50)): 88.4 µM
- growth inhibition effect (GI50) ([7]; UACC-62 human melanoma cells): 32.9 µg/mL
- selectivity index (SI) ([8]; 3T3 vs MCF7): 4.3
- GI50 ([8]; MCF7 cells, read-out: growth inhibition (GI50)): 162 µM
- selectivity index (SI) ([9]; 3T3 vs HEP2): 4.4
- GI50 ([9]; HEP2 cells, read-out: growth inhibition (GI50)): 157 µM
- selectivity index (SI) ([10]; 3T3 vs B16-F10): >4.1
- GI50 ([10]; B16-F10 cells, read-out: growth inhibition (GI50)): 168 µM
- selectivity index (SI) ([11]; 3T3 vs HT-29, from literature GI50 values): 0.7
- GI50 ([11]; HT-29 cells, read-out: growth inhibition (GI50)): 916 µM
- GI50 ([12]; MCF7, HEP2, PC-03, B16-F10, and UACC-62 cells, ref Bogo et al. (2020), Brandão et al. (2013), read-out: GI50, range): 88.4 to 191 µM
- cytotoxic activity in words ([12]; listed as Norstictic acid): poor activity
- cytotoxic activity in words ([12]; listed as norstictic acid): low cytotoxic activity
